This experiment addresses kynurenine 3-monooxygenase (KMO) (Homo sapiens, UniProt O15229). As to the kind of experiment: microdialysis (rapid equilibrium dialysis) with LC-MS on enriched HEK-KMO lysate; supported by cell lysate enzymatic inhibition, IC50 […]. It is filed as binding. In general terms: In equilibrium dialysis free small molecules cross a membrane that holds back macromolecules.

The values below come from paper PMC6044753, “Diclofenac Identified as a Kynurenine 3-Monooxygenase Binder and Inhibitor by Molecular Similarity Techniques” (ACS Omega, 2018).

Structures are written as SMILES.

kynurenine 3-monooxygenase (KMO), sequence (O15229 whole entry): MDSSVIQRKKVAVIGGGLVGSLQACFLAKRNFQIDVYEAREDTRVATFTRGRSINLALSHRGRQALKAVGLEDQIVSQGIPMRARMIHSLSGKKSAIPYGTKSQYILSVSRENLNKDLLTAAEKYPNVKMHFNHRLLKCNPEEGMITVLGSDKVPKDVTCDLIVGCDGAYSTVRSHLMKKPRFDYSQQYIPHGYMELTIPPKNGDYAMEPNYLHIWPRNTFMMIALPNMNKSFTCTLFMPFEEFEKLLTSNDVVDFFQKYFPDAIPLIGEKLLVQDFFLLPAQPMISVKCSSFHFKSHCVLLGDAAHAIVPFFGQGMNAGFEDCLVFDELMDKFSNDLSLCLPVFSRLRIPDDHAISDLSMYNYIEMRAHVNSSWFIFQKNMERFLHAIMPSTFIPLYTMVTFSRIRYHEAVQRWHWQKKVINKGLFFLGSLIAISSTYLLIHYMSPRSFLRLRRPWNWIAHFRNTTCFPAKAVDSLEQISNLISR

For the molecule `O=C(O)Cc1ccccc1Nc1c(Cl)cccc1Cl` [diclofenac], binding was put at a Kd of 64.8 ± 29.5 µM.
